Results reported in paper PMC9913425, “Pentacyclic Triterpenoids-Based Ionic Compounds: Synthesis, Study of Structure–Antitumor Activity Relationship, Effects on Mitochondria and Activation of Signaling Pathways of Proliferation, Genome Reparation and Early Apoptosis” (Cancers, 2023).

Experiments:
[1] = system: A2780; experiment: In vitro cytotoxicity, IC50 by flow cytometry (Guava ViaCount); assay type: cell-based, human
Experimental: (§1) Human cancer cell line HeLa, HL60, A2780 was obtained from the HPA Culture Collections (Salisbury, UK). Cells (Jurkat, K562, U937, Hek293, Fibroblasts) were purchased from Russian Cell Culture Collection (Institute of Cytology of the Russian Academy of Sciences, […], Russia) and cultured according to standard protocols and sterile technique. […] Cells were maintained in RPMI 1640 (Jurkat, K562, U937, HL60) (Gibco, Billings, MT, USA) supplemented with […], 10% FBS (Sigma) and 100 units/mL penicillin–streptomycin (Sigma). All types of cells were grown in an atmosphere of 5% CO2 at 37 °C. The cells were subcultured at 2–3 days intervals. Cells were then seeded in 24-well plates at 5 × 10^4 cells per well and incubated overnight. Jurkat, K562, U937, HL60 cells were subcultured at 2-day intervals with a seeding density of 1 × 10^5 cells per 24-well plates in RPMI with 10% FBS.
(§2) The antitumor activity of the synthesized ionic compounds was initially assessed in vitro on Jurkat, K562, U937, HL60, HEK293, A2780 cell lines, including the determination of IC50 by flow cytometry involving Guava ViaCount (Millipore) reagent kits.

[2] = system: HL60; experiment: as above; assay type: cell-based, human
Experimental: as §1, §2

[3] = system: Jurkat cells; experiment: Apoptosis/necrosis induction (Annexin V Alexa Fluor488, 7AAD staining); assay type: cell-based; conditions: compound at IC50 concentration, incubation 2 h
Excerpt: Multiparametric evaluation of marker molecules, along with the detection of damage to the mitochondrial membrane, makes it possible to clearly determine the type of cell death. The method of cell staining with three different dyes (Annexin V Alexa Fluor488, 7AAD and MitoSense Red) provides simultaneous specification of various aspects of the state of the cell membrane, the state of DNA and the viability of mitochondria; together, it is a reliable sign of intrinsic and mitochondrial apoptosis pathway. Normal cells with intact mitochondrial membranes have high MitoSense Red fluorescence, while cells with decoupled oxidation and phosphorylation have much lower fluorescence. […]
Figure 1 The ratio of the level of mito-damage and the level of apoptosis in Jurkat cells of ionic compounds based on ursolic, oleanolic and betulinic acids.

[4] = system: mitochondria of Jurkat tumor cells; experiment: Mitochondrial damage (MitoSense Red staining); assay type: cell-based; conditions: compound at IC50 concentration, incubation 2 h
[5] = system: K562; experiment: In vitro cytotoxicity, IC50 by flow cytometry (Guava ViaCount); assay type: cell-based
Experimental: as §1, §2

[6] = system: HEK293; experiment: as above; assay type: cell-based; conditions: conditionally normal
Experimental: as §1, §2

[7] = system: U937; experiment: as above; assay type: cell-based
Experimental: as §1, §2

[8] = system: Jurkat; experiment: as above; assay type: cell-based; conditions: Jurkat cells
Experimental: as §1, §2

[9] = Homo sapiens, A2780, A2780 cells
[10] = Homo sapiens, HL-60, HL60 cells
[11] = Homo sapiens, HEK293, HEK293 cells
[12] = Homo sapiens, U-937, U937 cells

Row | Compound | IC50 ([1]; A2780 cells) [nM] | IC50 ([2]; HL60 cells) [nM] | Apoptosis (%) Early [3] [%] | Apoptosis (%) Late [3] [%] | Apoptosis (%) Necrosis [3] [%] | Mito-Damage (%) [4] [%] | IC50 ([5]; K562 cells) [nM] | IC50 ([6]; HEK293 cells) [nM] | IC50 ([7]; U937 cells) [nM] | IC50 [8] [nM] | IC50 [1, 9] [nM] | IC50 [2, 10] [nM] | IC50 ([5]; Homo sapiens, K562, K562 cells) [nM] | IC50 [6, 11] [nM] | IC50 [7, 12] [nM] | IC50 ([8]; Homo sapiens, Jurkat) [nM]
1 | 1-Benzyl-3-methylimidazolium (3β)-3-hydroxyolup-20(29)-en28-oylate [17d] | 87 ± 9 | 19 ± 2 | 4.82 | 1.44 | 2.11 | 9.69 | 44 ± 2 | 189 ± 16 | 40 ± 2 | 16 ± 1 | – | – | – | – | – | –
2 | 1-Benzyl-3-methylimidazolium (3β)-3-hydroxyours-12-en-28-oylate [16d] | 27 ± 2 | 5 ± 1 | – | – | – | – | 12 ± 1 | 56 ± 4 | 11 ± 1 | 11 ± 1 | – | – | – | – | – | –
3 | 1-Butyl-3-methylimidazolium (3β)-3-hydroxyolean-12-en-28-oylate [15b] | 79 ± 7 | 17 ± 2 | – | – | – | – | 41 ± 2 | 167 ± 16 | 38 ± 2 | 19 ± 1 | – | – | – | – | – | –
4 | 1-Butyl-3-methylimidazolium (3β)-3-hydroxyolup-20(29)-en28-oylate [17b] | 74 ± 6 | 15 ± 1 | 6.45 | 3.38 | 1.92 | 17.39 | 39 ± 3 | 159 ± 14 | 32 ± 3 | 14 ± 1 | – | – | – | – | – | –
5 | 1-Butyl-3-methylimidazolium (3β)-3-hydroxyours-12-en-28-oylate [16b] | 396 ± 35 | 89 ± 8 | – | – | – | – | 336 ± 16 | 935 ± 94 | 299 ± 14 | 97 ± 6 | – | – | – | – | – | –
6 | 1-Hexyl-3-methylimidazolium (3β)-3-hydroxyolean-12-en-28-oylate [15c] | 157 ± 18 | 39 ± 4 | – | – | – | – | 80 ± 4 | 392 ± 38 | 69 ± 3 | 43 ± 2 | – | – | – | – | – | –
7 | 1-Hexyl-3-methylimidazolium (3β)-3-hydroxyolean-12-en-28-oylate [15d] | 231 ± 22 | 69 ± 7 | – | – | – | – | 159 ± 8 | 581 ± 47 | 143 ± 7 | 107 ± 6 | – | – | – | – | – | –
8 | 1-Hexyl-3-methylimidazolium (3β)-3-hydroxyolup-20(29)-en28-oylate [17c] | 113 ± 10 | 26 ± 3 | 3.97 | 1.70 | 2.82 | 8.71 | 56 ± 3 | 293 ± 31 | 54 ± 3 | 29 ± 2 | – | – | – | – | – | –
9 | 1-Hexyl-3-methylimidazolium (3β)-3-hydroxyours-12-en-28-oylate [16c] | 39 ± 4 | 7 ± 1 | – | – | – | – | 16 ± 1 | 81 ± 8 | 14 ± 1 | 7 ± 1 | – | – | – | – | – | –
10 | C[n+]1ccn(CCOC(=O)[C@]23CCC(C)(C)CC2C2=CCC4[C@@]5(C)CC[C@H](O)C(C)(C)C5CC[C@@]4(C)[C@]2(C)CC3)c1 (stereo partly drawn) [9a, 1-(2-{[(3β)-3-Hydroxyolean-12-en-28-oyl]oxy}ethyl)-3-methylimidazolium Bromide] | – | – | 1.72 | 2.79 | 1.96 | 5.07 | – | – | – | – | 132 ± 11 | 24 ± 2 | 78 ± 4 | 259 ± 24 | 69 ± 4 | 37 ± 2
11 | C[n+]1ccn(CCCCOC(=O)[C@]23CCC(C)(C)CC2C2=CCC4[C@@]5(C)CC[C@H](O)C(C)(C)C5CC[C@@]4(C)[C@]2(C)CC3)c1 (stereo partly drawn) [9b, 1-(4-{[(3β)-3-Hydroxyolean-12-en-28-oyl]oxy}butyl)-3-methylimidazolium bromide] | – | – | – | – | – | – | – | – | – | – | 257 ± 24 | 46 ± 4 | 149 ± 7 | 449 ± 41 | 135 ± 7 | 29 ± 2
12 | C[n+]1ccn(CCCCCCOC(=O)[C@]23CCC(C)(C)CC2C2=CCC4[C@@]5(C)CC[C@H](O)C(C)(C)C5CC[C@@]4(C)[C@]2(C)CC3)c1 (stereo partly drawn) [9c, 1-(6-{[(3β)-3-Hydroxyolean-12-en-28-oyl]oxy}hexyl)-3-methylimidazolium bromide] | 234 ± 21 | 31 ± 3 | – | – | – | – | 133 ± 6 | 318 ± 29 | 119 ± 5 | 26 ± 1 | – | – | – | – | – | –
13 | C[n+]1ccn(CCCCCCOC(=O)[C@]23CCC(C)(C)CC2C2=CCC4[C@@]5(C)CC[C@H](O)C(C)(C)C5CC[C@@]4(C)[C@]2(C)CC3)c1 (stereo partly drawn) [13a, 1-(6-{[(3β)-3-Hydroxyolean-12-en-28-oyl]oxy}hexyl)-3-methylimidazolium Tetrafluoroborate] | 18 ± 2 | 2 ± 1 | – | – | – | – | 6 ± 1 | 24 ± 2 | 5 ± 1 | 3 ± 1 | – | – | – | – | – | –
14 | C[C@H](O)C(=O)[O-].C[n+]1ccn(CCCCCCOC(=O)[C@]23CCC(C)(C)CC2C2=CCC4[C@@]5(C)CC[C@H](O)C(C)(C)C5CC[C@@]4(C)[C@]2(C)CC3)c1 (stereo partly drawn) [13g, 1-(6-{[(3β)-3-Hydroxyolean-12-en-28-oyl]oxy}hexyl)-3-methylimidazolium L-lactate] | 13 ± 1 | 2 ± 1 | – | – | – | 97.4 | 14 ± 1 | 26 ± 2 | 13 ± 1 | 7 ± 1 | – | – | – | – | – | –
15 | CC1(C)CCC2(C(=O)[O-])CCC3(C)C(=CCC4C5(C)CCC(O)C(C)(C)C5CCC43C)C2C1.CC[n+]1ccn(C)c1 (stereo not drawn) [15a, 1-Ethyl-3-methylimidazolium (3β)-3-hydroxyolean-12-en-28-oylate] | 162 ± 12 | 34 ± 3 | – | – | – | – | 88 ± 5 | 359 ± 31 | 79 ± 5 | 47 ± 3 | – | – | – | – | – | –
16 | CCn1cc[n+](C)c1.C[C@H]1[C@H](C)CC[C@]2(C(=O)[O-])CC[C@]3(C)C(=CC[C@@H]4[C@@]5(C)CC[C@H](O)C(C)(C)[C@@H]5CC[C@]43C)[C@H]12 [16a, 1-Ethyl-3-methylimidazolium (3β)-3-hydroxyours-12-en-28-oylate] | 88 ± 7 | 18 ± 2 | – | – | – | – | 36 ± 2 | 178 ± 18 | 34 ± 2 | 33 ± 2 | – | – | – | – | – | –
